In patent publication US12568972B2, “Pyridazinol compounds and derivatives, preparation methods, herbicidal compositions and applications thereof” (Qingdao Kingagroot Chemical Compound Co., Ltd., priority 2018, dated 2026):

Tests used:
Assay in all cases: Post-emergence test, weed control effect
Type in all cases: in vivo
Conditions in all cases: after 3 weeks
Amaranthus retroflexus = tested on: Amaranthus retroflexus
Source text: (§1) The activity level standard of harmful plant destruction (i.e. growth inhibition rate) is as follows: • Level 10: completely dead; • Level 9: above 90% growth inhibition rate; • Level 8: above 80% growth inhibition rate; • Level 7: above 70% growth inhibition rate; • Level 6: above 60% growth inhibition rate; • Level 5: above 50% growth inhibition rate; • Level 4: above 40% growth inhibition rate; • Level 3: above 30% growth inhibition rate; • Level 2: above 20% growth inhibition rate; • Level 1: below 20% growth inhibition rate; • Level 0: no effect.
(§2) The above described growth inhibition rates are fresh weight inhibition rates.
(§3) Experiment of post-emergence test: monocotyledonous and dicotyledonous weed seeds as well as main crop seeds (i.e., wheat, corn, rice, soybean, cotton, oilseed rape, millet and sorghum) were put into a plastic pot loaded with soil, then covered with 0.5-2 cm of soil, and the seeds were allowed to grow in good greenhouse environment. The test plants were treated at 2-3 leaf stage 2-3 weeks after sowing. The test compounds of the invention were dissolved in acetone respectively, then added with Tween-80 and diluted by a certain amount of water to give solutions with certain concentrations, and added with 80% vegetable oil methyl ester synergist at 1500 g/ha. The solution was sprayed to the plants with a sprayer. The plants were cultured for 3 weeks in the greenhouse.

Chenopodiaceae = tested on: Chenopodiaceae
Source text: as §1, §2, §3

Rorippa indica = tested on: Rorippa indica
Source text: as §1, §2, §3

Veronica polita = tested on: Veronica polita
Source text: as §1, §2, §3

Cn1nc(C2CC2)cc1-c1nnc(C(F)(F)F)cc1O [Compound 781]
10: weed control effect (activity level), Amaranthus retroflexus (Amaranthus retroflexus; Dose 3000 g/ha) | weed control effect (activity level), Chenopodiaceae (Chenopodiaceae; Dose 3000 g/ha) | weed control effect (activity level), Rorippa indica (Rorippa indica; Dose 3000 g/ha) | weed control effect (activity level), Veronica polita (Veronica polita; Dose 3000 g/ha)

CCCCCCCOC(=O)Oc1cc(C(F)(F)F)nnc1-c1ccc(Cl)c(Cl)c1Cl [Compound 1-38]
10: weed control effect, Amaranthus retroflexus (activity level) (Amaranthus retroflexus; Dose 3000 g/ha) | weed control effect, Chenopodiaceae (activity level) (Chenopodiaceae; Dose 3000 g/ha) | weed control effect, Rorippa indica (activity level) (Rorippa indica; Dose 3000 g/ha) | weed control effect, Veronica polita (activity level) (Veronica polita; Dose 3000 g/ha)

O=C(Oc1cc(C(F)(F)F)nnc1-c1ccccc1)N1CCOCC1 [Compound 1-65]
10: weed control effect, Amaranthus retroflexus (activity level) (Amaranthus retroflexus; Dose 3000 g/ha) | weed control effect, Chenopodiaceae (activity level) (Chenopodiaceae; Dose 3000 g/ha) | weed control effect, Rorippa indica (activity level) (Rorippa indica; Dose 3000 g/ha) | weed control effect, Veronica polita (activity level) (Veronica polita; Dose 3000 g/ha)

Cc1ccc(-c2nnc(C(F)(F)F)cc2O)c(F)c1 [Compound 59]
10: weed control effect (activity level), Amaranthus retroflexus (Amaranthus retroflexus; dose 1000 g/ha) | weed control effect (activity level), Chenopodiaceae (Chenopodiaceae; dose 1000 g/ha) | weed control effect (activity level), Rorippa indica (Rorippa indica; dose 1000 g/ha) | weed control effect (activity level), Veronica polita (Veronica polita; dose 1000 g/ha)

COc1ccc(C(=O)Oc2cc(C(F)(F)F)nnc2-c2ccc(F)c(F)c2)cc1 [Compound 1-84]
10: weed control effect, Amaranthus retroflexus (activity level) (Amaranthus retroflexus; Dose 3000 g/ha) | weed control effect, Chenopodiaceae (activity level) (Chenopodiaceae; Dose 3000 g/ha) | weed control effect, Rorippa indica (activity level) (Rorippa indica; Dose 3000 g/ha) | weed control effect, Veronica polita (activity level) (Veronica polita; Dose 3000 g/ha)

Cc1cc(-c2nnc(C(F)(F)F)cc2O)n(C(C)C)n1 [Compound 829]
10: weed control effect (activity level), Amaranthus retroflexus (Amaranthus retroflexus; Dose 3000 g/ha) | weed control effect (activity level), Chenopodiaceae (Chenopodiaceae; Dose 3000 g/ha) | weed control effect (activity level), Rorippa indica (Rorippa indica; Dose 3000 g/ha) | weed control effect (activity level), Veronica polita (Veronica polita; Dose 3000 g/ha)

O=C(COCc1ccccc1)Oc1cc(C(F)(F)F)nnc1-c1ccc(F)c(F)c1 [Compound 1-100]
10: weed control effect, Amaranthus retroflexus (activity level) (Amaranthus retroflexus; Dose 3000 g/ha) | weed control effect, Chenopodiaceae (activity level) (Chenopodiaceae; Dose 3000 g/ha) | weed control effect, Rorippa indica (activity level) (Rorippa indica; Dose 3000 g/ha) | weed control effect, Veronica polita (activity level) (Veronica polita; Dose 3000 g/ha)

Cc1nc(F)ccc1-c1nnc(C(F)(F)F)cc1O [Compound 223]
10: weed control effect (activity level), Amaranthus retroflexus (Amaranthus retroflexus; dose 2000 g/ha) | weed control effect (activity level), Chenopodiaceae (Chenopodiaceae; dose 2000 g/ha) | weed control effect (activity level), Rorippa indica (Rorippa indica; dose 2000 g/ha) | weed control effect (activity level), Veronica polita (Veronica polita; dose 2000 g/ha)

Oc1cc(C(F)(F)F)nnc1-c1cccc(C(F)(F)F)c1 [Compound 92]
10: weed control effect (activity level), Amaranthus retroflexus (Amaranthus retroflexus; dose 1000 g/ha) | weed control effect (activity level), Chenopodiaceae (Chenopodiaceae; dose 1000 g/ha) | weed control effect (activity level), Rorippa indica (Rorippa indica; dose 1000 g/ha) | weed control effect (activity level), Veronica polita (Veronica polita; dose 1000 g/ha)

CCS(=O)(=O)Oc1cc(C(F)(F)F)nnc1-c1ccc(F)cc1 [Compound 1-121]
10: weed control effect, Amaranthus retroflexus (activity level) (Amaranthus retroflexus; Dose 3000 g/ha) | weed control effect, Chenopodiaceae (activity level) (Chenopodiaceae; Dose 3000 g/ha) | weed control effect, Rorippa indica (activity level) (Rorippa indica; Dose 3000 g/ha) | weed control effect, Veronica polita (activity level) (Veronica polita; Dose 3000 g/ha)

Oc1cc(C(F)(F)F)nnc1-c1ccc2c(c1)OC(F)(F)O2 [Compound 1286]
10: weed control effect (activity level), Amaranthus retroflexus (Amaranthus retroflexus; Dose 3000 g/ha) | weed control effect (activity level), Chenopodiaceae (Chenopodiaceae; Dose 3000 g/ha) | weed control effect (activity level), Rorippa indica (Rorippa indica; Dose 3000 g/ha) | weed control effect (activity level), Veronica polita (Veronica polita; Dose 3000 g/ha)

CC(C)OC(=O)Nc1ccc(-c2nnc(C(F)(F)F)cc2O)cn1 [Compound 323]
10: weed control effect (activity level), Amaranthus retroflexus (Amaranthus retroflexus; dose 2000 g/ha) | weed control effect (activity level), Chenopodiaceae (Chenopodiaceae; dose 2000 g/ha) | weed control effect (activity level), Rorippa indica (Rorippa indica; dose 2000 g/ha) | weed control effect (activity level), Veronica polita (Veronica polita; dose 2000 g/ha)

CCOC(=O)Oc1cc(C(F)(F)F)nnc1-c1ccc(F)c(F)c1 [Compound 1-26]
10: weed control effect, Amaranthus retroflexus (activity level) (Amaranthus retroflexus; Dose 3000 g/ha) | weed control effect, Chenopodiaceae (activity level) (Chenopodiaceae; Dose 3000 g/ha) | weed control effect, Rorippa indica (activity level) (Rorippa indica; Dose 3000 g/ha) | weed control effect, Veronica polita (activity level) (Veronica polita; Dose 3000 g/ha)

O=S(=O)(Oc1cc(C(F)(F)F)nnc1-c1ccc(F)c(F)c1)c1ccc(C(F)(F)F)cc1 [Compound 1-129]
10: weed control effect, Amaranthus retroflexus (activity level) (Amaranthus retroflexus; Dose 3000 g/ha) | weed control effect, Chenopodiaceae (activity level) (Chenopodiaceae; Dose 3000 g/ha) | weed control effect, Rorippa indica (activity level) (Rorippa indica; Dose 3000 g/ha) | weed control effect, Veronica polita (activity level) (Veronica polita; Dose 3000 g/ha)

O=[N+]([O-])c1cc(-c2nnc(C(F)(F)F)cc2O)ccc1F [Compound 66]
10: weed control effect (activity level), Amaranthus retroflexus (Amaranthus retroflexus; dose 1000 g/ha) | weed control effect (activity level), Chenopodiaceae (Chenopodiaceae; dose 1000 g/ha) | weed control effect (activity level), Rorippa indica (Rorippa indica; dose 1000 g/ha) | weed control effect (activity level), Veronica polita (Veronica polita; dose 1000 g/ha)

Oc1cc(C(F)(F)F)nnc1-c1ccnn1-c1ccccc1 [Compound 832]
10: weed control effect (activity level), Amaranthus retroflexus (Amaranthus retroflexus; Dose 3000 g/ha) | weed control effect (activity level), Chenopodiaceae (Chenopodiaceae; Dose 3000 g/ha) | weed control effect (activity level), Rorippa indica (Rorippa indica; Dose 3000 g/ha) | weed control effect (activity level), Veronica polita (Veronica polita; Dose 3000 g/ha)

Oc1cc(C(F)(F)F)nnc1-c1cccc2cc[nH]c12 [Compound 589]
10: weed control effect (activity level), Amaranthus retroflexus (Amaranthus retroflexus; Dose 3000 g/ha) | weed control effect (activity level), Chenopodiaceae (Chenopodiaceae; Dose 3000 g/ha) | weed control effect (activity level), Rorippa indica (Rorippa indica; Dose 3000 g/ha) | weed control effect (activity level), Veronica polita (Veronica polita; Dose 3000 g/ha)
